PubChem BioAssay (NCI)
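Cells were grown in 96-well plates and exposed to each compound for 48 hours at five concentrations; endpoints were interpolated linearly between bracketing concentrations, or set to the highest concentration if not reached. TGI: total growth inhibition.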

Legend:
Assay in all cases: DTP human tumour cell line panel, 48 h
[1] = test system: MOLT-4 leukemia
[2] = test system: HT29 colon
[3] = test system: LOX IMVI melanoma
[4] = test system: HCT-116 colon
[5] = test system: UACC-257 melanoma
[6] = test system: OVCAR-3 ovarian
[7] = test system: RPMI-8226 leukemia
[8] = test system: IGROV1 ovarian
[9] = test system: HL-60(TB) leukemia
[10] = test system: SK-MEL-28 melanoma
[11] = test system: SN12C renal
[12] = test system: SF-295 CNS
[13] = test system: OVCAR-5 ovarian
[14] = test system: LXFL 529 NSCLC
[15] = test system: SNB-78 CNS
[16] = test system: NCI-H522 lung
[17] = test system: DLD-1 colon
[18] = test system: TK-10 renal
[19] = test system: U251 CNS
[20] = test system: M19-MEL melanoma
[21] = test system: OVCAR-4 ovarian
[22] = test system: SNB-19 CNS
[23] = test system: HCT-15 colon
[24] = test system: EKVX NSCLC
[25] = test system: RXF 393 renal
[26] = test system: 786-0 renal
[27] = test system: MALME-3M melanoma
[28] = test system: CAKI-1 renal
[29] = test system: KM20L2 colon
[30] = test system: CCRF-CEM leukemia
[31] = test system: SNB-75 CNS
[32] = test system: A498 renal
[33] = test system: SK-OV-3 ovarian
[34] = test system: SW-620 colon
[35] = test system: UACC-62 melanoma
[36] = test system: HOP-62 NSCLC
[37] = test system: DMS 273 small cell lung
[38] = test system: XF 498 CNS
[39] = test system: ACHN renal
[40] = test system: HOP-92 NSCLC
[41] = test system: A549 NSCLC
[42] = test system: SK-MEL-5 melanoma
[43] = test system: HCC-2998 colon
[44] = test system: SK-MEL-2 melanoma
[45] = test system: K-562 leukemia
[46] = test system: SR leukemia
[47] = test system: M14 melanoma
[48] = test system: UO-31 renal
[49] = test system: HOP-18 NSCLC
[50] = test system: NCI-H23 lung
[51] = test system: SF-268 CNS
[52] = test system: KM12 colon
[53] = test system: NCI-H226 lung
[54] = test system: COLO 205 colon
[55] = test system: NCI-H460 lung
[56] = test system: SF-539 CNS
[57] = test system: OVCAR-8 ovarian
[58] = test system: DMS 114 small cell lung

O=C1C2C3CCC(C2C(=O)N1CO)C1C2C(=O)N(CO)C(=O)C2C31 (stereo not drawn)
TGI [1]: 67.7 µM | TGI [2]: > 100 µM | TGI [3]: > 61.9 µM | TGI [4]: > 54.2 µM | TGI [5]: > 100 µM | TGI [6]: > 100 µM | TGI [7]: 47.7 µM | TGI [8]: > 100 µM | TGI [9]: 31.1 µM | TGI [10]: > 100 µM | TGI [11]: > 69.2 µM | TGI [12]: > 100 µM | TGI [13]: > 100 µM | TGI [14]: > 100 µM | TGI [15]: > 100 µM | TGI [16]: > 100 µM | TGI [17]: > 65.6 µM | TGI [18]: > 100 µM | TGI [19]: > 56.2 µM | TGI [20]: > 100 µM | TGI [21]: > 58.8 µM | TGI [22]: > 100 µM | TGI [23]: > 60.4 µM | TGI [24]: > 100 µM | TGI [25]: > 68.6 µM | TGI [26]: > 61.3 µM | TGI [27]: > 100 µM | TGI [28]: > 100 µM | TGI [29]: > 79.8 µM | TGI [30]: 48.2 µM | TGI [31]: > 100 µM | TGI [32]: > 100 µM | TGI [33]: > 100 µM | TGI [34]: > 67.5 µM | TGI [35]: > 100 µM | TGI [36]: > 100 µM | TGI [37]: > 58.1 µM | TGI [38]: > 100 µM | TGI [39]: > 63 µM | TGI [40]: > 100 µM | TGI [41]: > 67.6 µM | TGI [42]: 98.9 µM | TGI [43]: > 100 µM | TGI [44]: > 100 µM | TGI [45]: > 75.2 µM | TGI [46]: 36.7 µM | TGI [47]: > 100 µM | TGI [48]: > 100 µM | TGI [49]: 34.2 µM | TGI [50]: > 100 µM | TGI [51]: > 86.3 µM | TGI [52]: > 100 µM | TGI [53]: > 100 µM | TGI [54]: > 59.6 µM | TGI [55]: > 54.5 µM | TGI [56]: > 85.3 µM | TGI [57]: > 67.6 µM | TGI [58]: > 59.5 µM

CC1OC(n2cc(I)c(=O)[nH]c2=O)C=CC1=O (stereo not drawn)
TGI [1]: 33.8 µM | TGI [2]: 30.6 µM | TGI [3]: 19.6 µM | TGI [4]: 24.9 µM | TGI [5]: 27.8 µM | TGI [6]: 31.5 µM | TGI [7]: 38.7 µM | TGI [8]: 39.2 µM | TGI [9]: 24.6 µM | TGI [10]: 29.2 µM | TGI [11]: 33.3 µM | TGI [12]: 32.5 µM | TGI [13]: 39.7 µM | TGI [14]: 22.7 µM | TGI [15]: 31.9 µM | TGI [17]: 26 µM | TGI [18]: 32.9 µM | TGI [19]: 27.6 µM | TGI [20]: 30.6 µM | TGI [21]: 29.8 µM | TGI [22]: 32.1 µM | TGI [23]: 32.3 µM | TGI [24]: 32.3 µM | TGI [26]: 26.9 µM | TGI [27]: 28.5 µM | TGI [28]: 29.5 µM | TGI [29]: 31 µM | TGI [30]: 7.74 µM | TGI [31]: 31.1 µM | TGI [32]: 29.6 µM | TGI [33]: 73.2 µM | TGI [34]: 26.8 µM | TGI [35]: 31.2 µM | TGI [36]: 32.7 µM | TGI [37]: 31.3 µM | TGI [38]: 33.3 µM | TGI [39]: 31.5 µM | TGI [40]: 33.9 µM | TGI [41]: 72.6 µM | TGI [42]: 29.5 µM | TGI [43]: 31.5 µM | TGI [44]: 32.4 µM | TGI [45]: 18 µM | TGI [46]: 32.2 µM | TGI [47]: 30.6 µM | TGI [48]: 30.5 µM | TGI [49]: 30.3 µM | TGI [50]: 30.7 µM | TGI [51]: 27.1 µM | TGI [52]: 25.8 µM | TGI [53]: 32.3 µM | TGI [54]: 30.7 µM | TGI [55]: 35.1 µM | TGI [56]: 27.5 µM | TGI [57]: 30.8 µM | TGI [58]: 31 µM

CCCCCCCCCCCCCC(=O)OC1C(CO)OC(=O)C1O (stereo not drawn)
TGI [1]: > 100 µM | TGI [2]: > 100 µM | TGI [3]: > 100 µM | TGI [4]: > 100 µM | TGI [5]: > 100 µM | TGI [6]: > 100 µM | TGI [7]: > 100 µM | TGI [8]: > 100 µM | TGI [9]: > 100 µM | TGI [11]: > 100 µM | TGI [12]: > 100 µM | TGI [13]: > 100 µM | TGI [14]: > 100 µM | TGI [15]: > 100 µM | TGI [17]: > 100 µM | TGI [18]: > 100 µM | TGI [19]: > 100 µM | TGI [20]: > 100 µM | TGI [21]: > 100 µM | TGI [22]: > 100 µM | TGI [23]: > 100 µM | TGI [24]: > 100 µM | TGI [25]: > 100 µM | TGI [26]: > 100 µM | TGI [27]: > 100 µM | TGI [28]: > 100 µM | TGI [29]: > 100 µM | TGI [30]: > 100 µM | TGI [31]: > 100 µM | TGI [32]: > 100 µM | TGI [33]: > 100 µM | TGI [34]: > 100 µM | TGI [35]: > 100 µM | TGI [36]: > 100 µM | TGI [37]: > 100 µM | TGI [38]: > 100 µM | TGI [39]: > 100 µM | TGI [40]: 95.9 µM | TGI [41]: > 100 µM | TGI [42]: > 100 µM | TGI [43]: > 100 µM | TGI [44]: > 100 µM | TGI [45]: > 100 µM | TGI [47]: > 100 µM | TGI [48]: > 100 µM | TGI [49]: > 100 µM | TGI [50]: > 100 µM | TGI [51]: > 100 µM | TGI [52]: > 100 µM | TGI [54]: > 100 µM | TGI [55]: > 100 µM | TGI [56]: > 100 µM | TGI [57]: > 100 µM | TGI [58]: > 100 µM
